Results on one compound are retold here after US10808005B2, “Ligand for orphan nuclear receptor Nur77 and uses thereof” (IXMEDICINE (XIAMEN) BIOLOGICAL TECHNOLOGY COMPANY LIMITED, priority 2016, dated 2020).

For one series, the system named is mTOR signaling pathway. Put plainly: Immunoblot of p-mTOR, p-P70S6K, p-S6 in TNFα-treated starved MDA-MB-231 cells. The format is cell-based.
The subject of series [1] is tumors. Put plainly: Tumor inhibition in wild type PYVT mice. The format is in vivo. As to conditions: YXY101 5 mg/kg or XS0284 10 mg/kg intragastric, two weeks.
The next series relates to breast cancer. Description: PYVT mice under LFD or HFD feeding, intragastric administration. The format is in vivo, WT mice and PYVT mice. The source says: The above conclusions can be reflected in the size of tumor tissue and the change of body weight of mice.
Series [2] deals with tumors. Put plainly: Tumor inhibition in Nur77-knocked-out PYVT mice. It is filed as in vivo, Nur77-knocked-out type. Particulars: Nur77-deficient; YXY101 5 mg/kg or XS0284 10 mg/kg intragastric, two weeks.
Series [3] relates to IκBα. Description: Immunoblot of IκBα in MEF cells. The format is cell-based. Particulars: MEF cells expressing Nur77. From the text:
(§1) The above results were also confirmed by using MEF cells and Nur77−/−MEF cells (i.e., MEF cells not expressing Nur77). […] Subsequently, IκBα in the cells was detected by WB.
In general terms: In western blotting, separated proteins are transferred to a membrane and probed.

Series [4] in a line: Acute toxicity model mice, histopathology. The format is in vivo. From the text:
The tissue morphologies of the heart, liver, small intestine, white fat and kidney were observed by Histopathological method.

Series [5] has as its system IκBα. Put plainly: Immunoblot of IκBα in Nur77−/−MEF cells. It is filed as cell-based.
From the text: as §1

The subject of series [6] is BT474, ZR-75-1, BT549, HCC1937, HS578T, MCF-7, and T47D. Description: Inhibition rate on seven breast cancer cells. The format is cell-based. Particulars: various breast cancer cells, FIG. 11C.
The test system of series [7] is IκBα and phosphorylated IKKα/β. Description: Immunoblot of IκBα and phosphorylated IKKα/β in TNFα-treated HepG2 cells. It is filed as cell-based. Particulars: TNFα 20 ng/mL 30 minutes. From the text: IκBα and phosphorylated IKKα/β in the cells were then detected by WB.
In addition, HepG2 cells were also applied in the experiment. […] IκBα in the cells was then detected by WB.

Setting [8] is: single intragastric injection 200 mg/kg.
Where [9] appears, read: single intraperitoneal injection 20 mg/kg.

For the compound `Cc1c(O)c(O)cc2c1C(S(=O)(=O)[O-])C=C1[C@@]2(C)CC[C@@]2(C)[C@@H]3C[C@](C)(C(=O)O)CC[C@]3(C)CC[C@]12C.[Na+]` (stereo partly drawn) [XS0284], the “inhibitory effect on P-mTOR, P-p70S6K and P—S6” value with mTOR signaling pathway is “strong inhibitory effect”. In addition, the “tumor inhibition (tumor tissue size)” value with tumors [1] was “effective in inhibiting tumors in wild-type mice”. The “inhibition effect on breast cancer compared with YXY101” value with breast cancer (high-fat feeding conditions) is on record as “stronger than that of YXY101”. Moreover, the “inhibitory effect on breast cancer compared with YXY101” value with breast cancer (low-fat feeding conditions) is “close to that of YXY101”. Also, the “development of breast cancer” value in the series with breast cancer (low-fat or high-fat feeding conditions) is recorded as “can significantly inhibit the development of breast cancer”. In addition, in the series with tumors [2], the “tumor inhibition (tumor tissue size)” value is recorded as “neither of the two compounds could exert an inhibitory effect”. Further, in the series with IκBα [3], the “TNFα-induced degradation of IκBα” value is given as “able to inhibit TNFα-induced degradation of IκBα”. For the same compound, in [4] (intragastric injection group), the “toxic effect compared with YXY101” value is “weaker toxic effect on the liver and small intestine than YXY101”. For the same compound, the “toxicity compared with YXY101” value in [4] (intraperitoneal injection group) is “less toxicity to kidney and adipose than YXY101”. Moreover, the “acute toxicity to animals compared with YXY101” value in series [4] (overall) is listed as “less acute toxicity to animals than YXY101”. Further, in series [4] (setting [8]), the adipose tissue morphology entry was “the adipose tissue cells had clear boundaries, and were neatly arranged, and the fiber breakage was reduced”; the heart tissue morphology result was “relatively clear boundaries, the myocardial fibers were arranged relatively neatly and had obvious boundaries”; the liver tissue morphology result was “the hepatocytes in the liver tissue had obvious boundaries and clear structure”; the “small intestine tissue morphology” value is “the intestinal tissue had clear boundaries, the cells were plump, the intestinal villi were neatly arranged and had obvious boundaries”. In series [4] (setting [9]), the adipose tissue morphology entry was “the adipose tissue cells had clear boundaries and were arranged neatly, the fiber breakage was reduced”; the heart tissue morphology entry is “relatively clear boundaries, the myocardial fibers were relatively neatly arranged and had obvious boundaries”; the kidney tissue morphology entry is “the kidney tissue had clear glomerular boundaries, the cells were full, and there was a small amount of inflammatory cell infiltration”; the liver tissue morphology entry is “the hepatocytes in the liver tissue had obvious boundaries and clear structure”. The “TNFα-induced degradation of IκBα” value with IκBα [5] is given as “lost the ability to inhibit IκBα degradation”. For the same compound, the “inhibitory effects on proliferation compared with YXY101” value in [6] is “close or even stronger than that of YXY101”. Moreover, in [7], the “TNFα-induced degradation of IκBα” value was “capable of inhibiting TNFα-induced degradation of IκBα”.
